Results reported in PubChem BioAssay (NCI).
Values joined by “and” are separate entries in the source; they are usually repeats but may differ in a detail not shown here. Identical values can stand only once.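 Test compounds were applied to cells in 96-well plates for 48 hours at 5 doses. GI50 marks 50% less growth. The concentration for full growth arrest is given as TGI.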

Experiments:
Assay in all cases: DTP human tumour cell line panel, 48 h
MDA-MB-231 breast = test system: MDA-MB-231 breast
M14 melanoma = test system: M14 melanoma
MDA-N = test system: MDA-N
HOP-62 NSCLC = test system: HOP-62 NSCLC
SK-MEL-28 melanoma = test system: SK-MEL-28 melanoma
DU-145 prostate = test system: DU-145 prostate
COLO 205 colon = test system: COLO 205 colon
SR leukemia = test system: SR leukemia
A498 renal = test system: A498 renal
SF-295 CNS = test system: SF-295 CNS
T-47D breast = test system: T-47D breast

Row | SMILES | TGI (MDA-MB-231 breast) | TGI (M14 melanoma) | TGI (MDA-N) | TGI (HOP-62 NSCLC) | TGI (SK-MEL-28 melanoma) | TGI (DU-145 prostate) | TGI (COLO 205 colon) | TGI (SR leukemia) | TGI (A498 renal) | TGI (SF-295 CNS) | TGI (T-47D breast) | GI50 (HOP-62 NSCLC) | GI50 (SK-MEL-28 melanoma) | GI50 (COLO 205 colon)
1 | CCn1c2ccccc2c2cc(NC(=O)c3c(C)[nH]c(=O)[nH]c3=S)ccc21 | 58.1 µM | 82.2 µM | > 100 µM | > 100 µM | > 100 µM | > 100 µM | 46.3 µM | > 100 µM | > 100 µM | > 100 µM | > 100 µM | – | – | –
2 | CCOC(=O)c1c(C)n(CCN2CCN(C)CC2)c2ccc(OC)cc12 | > 100 µM | 30.8 µM | 39.4 µM | > 100 µM | 32 µM | > 100 µM | 31.6 µM | 46.3 µM | 73.8 µM | > 100 µM | > 100 µM | – | – | –
3 | O=C(O)c1cc2c(cc1CC(Cc1ccccc1)C(=O)O)CCC2 (centres undefined) | > 100 µM | > 100 µM | > 100 µM | > 100 µM | > 100 µM | > 100 µM | > 100 µM | > 100 µM | > 100 µM | > 100 µM | > 100 µM | – | – | –
4 | Oc1cc(Br)cc2cc(Br)cnc12 | 88.2 µM | 29.2 µM | > 100 µM | > 100 µM | > 100 µM | 60.8 µM | > 100 µM | 11 µM | 24.2 µM | 28 µM | 8.41 µM | – | – | –
5 | CCOc1cc(C=Nc2ccc(Oc3ccc(Cl)cc3)c(Cl)c2)ccc1O | 42.1 µM | 77.6 µM | 61.7 µM | 45.6 µM | 63.1 µM | > 100 µM | 44.6 µM | 57 µM | 36.6 µM | 38.8 µM | > 100 µM | – | – | –
6 | Nc1ncnc2c(C3OC(CO)C(O)C3O)c[nH]c12 (centres undefined) | > 100 µM | 0.336 µM and 0.225 µM | 0.158 µM and 0.138 µM | 0.342 µM and 0.0897 µM | 0.51 µM and 0.734 µM | 0.113 µM | – | 0.272 µM | 0.113 µM and 0.0973 µM | 1.02 µM | 0.0758 µM and 0.0275 µM | 0.0136 µM | 0.0452 µM | 0.0193 µM
7 | COc1cc2c(cc1OCc1ccccc1)NC(=O)[C@@H]1C[C@@H](O)CN1C2=O | > 100 µM | > 100 µM | > 100 µM | > 100 µM | > 100 µM | > 100 µM | > 100 µM | > 100 µM | > 100 µM | > 100 µM | > 100 µM | – | – | –
